Reference: patent US20120190669A1, “OXINDOLE COMPOUNDS” (CYLENE PHARMACEUTICALS, INC., priority 2008, published 2012)
Read-outs that look alike come from different tables or passages of the source.

Assays:
K-562 = assay: Alamar Blue cell proliferation assay, K-562; format: cell-based; conditions: Homo sapiens
Method: (§1) A representative cell-proliferation assay protocol using Alamar Blue dye (stored at 4° C., use 20 ul per well) is described hereafter.
(§2) 96-Well Plate Setup and Compound Treatment
(§3) a. Split and trypsinize cells.
(§4) b. Count cells using hemocytometer.
(§5) c. Plate 4,000-5,000 cells per well in 100 μl of medium and seed into a 96-well plate according to the following plate layout. Add cell culture medium only to wells B10 to B12. Wells B1 to B9 have cells but no compound added.
(§6) d. Add 100 μl of 2× drug dilution to each well in a concentration shown in the plate layout above. At the same time, add 100 μl of media into the control wells (wells 1310 to B12). Total volume is 200 μl/well.
(§7) e. Incubate four (4) days at 37° C., 5% CO2 in a humidified incubator.
(§8) f. Add 20 μl Alamar Blue reagent to each well.
(§9) g. Incubate for four (4) hours at 37° C., 5% CO2 in a humidified incubator.
(§10) h. Record fluorescence at an excitation wavelength of 544 nm and emission wavelength of 590 nm using a microplate reader.
(§11) In the assays, cells are cultured with a test compound for approximately four days, the dye is then added to the cells and fluorescence of […] dye is detected after approximately four hours. Different types of cells can be utilized in the assays (e.g., HCT-116 human colorectal carcinoma cells, PC-3 human prostatic cancer cells and MiaPaca human pancreatic carcinoma cells).

[1] = system: PC-3 human prostatic cancer cells; assay: Alamar Blue cell proliferation assay, PC3; format: cell-based
Method: as §1, §2, §3, §4, §5, §6, §7, §8, §9, §10, §11

recombinant PIM-1 = recombinant PIM-1 (Homo sapiens, UniProt P11309); assay: PIM-1 kinase assay (radiometric, 15 uM ATP, DMSO 4%); format: biochemical; conditions: for inhibition at 0.5 µM: Table 5, compound at 500 nM, read-out: PIM1: % inh 500 nM; for inhibition at 2 µM: % inhibition at the high dose (2 micromolar) in a single screening assay, 15 μM ATP
[2] = system: MiaPaca human pancreatic carcinoma cells; assay: Alamar Blue cell proliferation assay, MiaPaCa; format: cell-based
Method: as §1, §2, §3, §4, §5, §6, §7, §8, §9, §10, §11

MV-4-11 = assay: Alamar Blue cell proliferation assay, MV-4-11; format: cell-based; conditions: Homo sapiens, MV4-11, Table 5, read-out: AB: MV-4-11 IC50
Method: as §1, §2, §3, §4, §5, §6, §7, §8, §9, §10, §11

[3] = system: HCT-116 human colorectal carcinoma cells; assay: Alamar Blue cell proliferation assay, HCT-116; format: cell-based; conditions: Table 5, read-out: AB: HCT-116 IC50
Method: as §1, §2, §3, §4, §5, §6, §7, §8, §9, §10, §11

[4] = K562, Table 5, read-out: AB: K-562 IC50
[5] = Table 5, read-out: AB: PC3 IC50
[6] = MIA PaCa-2, Table 5, read-out: AB: MiaPaCa IC50
[7] = Table 3, DMSO 4%, read-out: PIM1: IC50 (DMSO 4%)
[8] = Table 1, given for compounds with IC50 at or below 2 micromolar, 15 uM ATP, read-out: PIM-1 IC50

Chain of recombinant PIM-1 (P11309 whole entry): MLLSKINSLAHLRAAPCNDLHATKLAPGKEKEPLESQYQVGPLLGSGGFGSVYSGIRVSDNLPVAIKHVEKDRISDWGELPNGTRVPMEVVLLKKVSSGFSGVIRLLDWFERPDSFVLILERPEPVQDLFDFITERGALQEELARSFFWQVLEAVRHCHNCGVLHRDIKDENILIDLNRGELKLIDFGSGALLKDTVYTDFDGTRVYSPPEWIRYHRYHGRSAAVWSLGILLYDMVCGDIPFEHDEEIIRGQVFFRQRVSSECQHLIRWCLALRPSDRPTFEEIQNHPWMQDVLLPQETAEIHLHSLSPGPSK

SMILES	IC50 (K-562; [4])	IC50 (MV-4-11)	inhibition at 0.5 µM (recombinant PIM-1)	IC50 [2, 6]	IC50 [3]	inhibition at 2 µM (recombinant PIM-1; Table 1)	further results
CN1CCCN(C(=O)c2cccc(-c3ccc(CC4C(=O)Nc5ccc(Cl)cc54)o3)c2)CC1 (stereo not shown) [drawing 213]	–	–	–	–	–	–	IC50 (K-562; K562, Table 2, read-out: AB: K-562): 0.24 µM; IC50 ([1]; Table 2, read-out: AB: PC3): 15.4 µM; IC50 (recombinant PIM-1; Table 2, read-out: PIM1: IC50): < 0.1 µM; IC50 ([2]; MIA PaCa-2, Table 2, read-out: AB: MiaPaCa): 0.559 µM
CN1CCCCC1CNC(=O)c1cccc(-c2coc(/C=C3/C(=O)Nc4ccccc43)c2)c1 (stereo not shown)	0.099 µM	0.12 µM	-28.9%	2.4 µM	2.49 µM	–	IC50 [1, 5]: 1.65 µM
CN1CCCC(NC(=O)c2cccc(-c3coc(/C=C4/C(=O)Nc5ccccc54)c3)c2)C1 (stereo not shown)	> 10 µM	0.315 µM	-22.7%	> 10 µM	4.31 µM	–	IC50 [1, 5]: > 10 µM
CN(C)C1CCN(C(=O)c2cccc(-c3coc(/C=C4/C(=O)Nc5ccc(F)cc54)c3)c2)CC1 [drawing 256]	3.7 µM	0.516 µM	10.8%	> 10 µM	3.85 µM	–	IC50 [1, 5]: 7.53 µM
CCN(CC)CCNC(=O)c1cccc(-c2coc(/C=C3/C(=O)Nc4ccccc43)c2)c1	> 10 µM	0.761 µM	-10.9%	9.23 µM	7.82 µM	–	IC50 [1, 5]: > 10 µM
CN1CCCN(C(=O)c2cccc(-c3ccc(/C=C4/C(=O)Nc5ccc(F)cc54)o3)c2)CC1	–	–	–	–	–	–	IC50 ([1]; Table 3, read-out: AB: PC3): > 10 µM; IC50 (recombinant PIM-1; [7]): < 1 µM
NS(=O)(=O)c1ccc(-c2ccc(/C=C3/C(=O)Nc4ccc(Cl)cc43)o2)cc1	–	–	–	–	–	–	IC50 ([1]; Table 3, read-out: AB: PC3): > 10 µM; IC50 (recombinant PIM-1; [7]): < 1 µM
O=C1Nc2ccc(F)cc2/C1=C\c1cc(-c2cccc(C(=O)NCc3ccncc3)c2)co1 [drawing 255]	> 10 µM	1.57 µM	-19.1%	> 10 µM	> 10 µM	–	–
O=C1Nc2ccccc2/C1=C\c1cc(-c2cccc(C(=O)NCc3ccncc3)c2)co1	> 10 µM	0.168 µM	-4.22%	> 10 µM	> 10 µM	–	IC50 [1, 5]: > 10 µM
CCN(CC)CCNC(=O)c1cccc(-c2coc(/C=C3/C(=O)Nc4ccc(F)cc43)c2)c1 [drawing 254]	2.44 µM	0.271 µM	11.5%	> 10 µM	3.6 µM	–	IC50 [1, 5]: > 10 µM
Cn1cncc1CNC(=O)c1cccc(-c2coc(/C=C3/C(=O)Nc4ccccc43)c2)c1	> 10 µM	0.998 µM	-14.6%	> 10 µM	> 10 µM	–	IC50 [1, 5]: > 10 µM
CCN(CC)CCNC(=O)c1ccccc1-c1ccc(/C=C2/C(=O)Nc3ccc(F)cc32)o1 [Compound 68]	–	–	–	–	–	11.2%	–
CN1CCCCC1CNC(=O)c1ccc(Cl)c(-c2ccc(/C=C3/C(=O)Nc4ccc(F)cc43)o2)c1 (stereo not shown) [Compound 102]	–	–	–	–	–	–	IC50 (recombinant PIM-1; [8]): < 2 µM
O=C1Nc2ccc(Cl)cc2/C1=C\c1ccc(-c2cccc(C(=O)NCCN3CCCC3)c2)o1 [Compound 43]	–	–	–	–	–	32.7%	–
CN1CCCC(NC(=O)c2cc(-c3ccc(/C=C4/C(=O)Nc5ccc(F)cc54)o3)ccc2Cl)C1 (stereo not shown) [Compound 70]	–	–	–	–	–	27.6%	–
CN(C)CCCOc1ccc(-c2ccc(/C=C3/C(=O)Nc4ccccc43)o2)cn1 [Compound 125]	–	–	–	–	–	41.5%	–
O=C1Nc2ccccc2/C1=C\c1ccc(-c2ccc(C(=O)NCCCn3ccnc3)c(F)c2)o1 [Compound 161]	–	–	–	–	–	28.4%	–
CN(C)c1ccc(CNC(=O)c2cccc(-c3ccc(/C=C4/C(=O)Nc5ccc(Cl)cc54)o3)c2)cc1 [Compound 177]	–	–	–	–	–	10.9%	–
C/C(=C1\C(=O)Nc2ccccc21)c1ccc(-c2cccc(C(=O)NCCN3CCCC3)c2)o1 [Compound 156]	–	–	–	–	–	–	IC50 (recombinant PIM-1; [8]): < 2 µM
CN1CCC(N(C)C(=O)c2ccccc2-c2ccc(/C=C3/C(=O)Nc4ccccc43)o2)C1 (stereo not shown) [Compound 58]	–	–	–	–	–	7.15%	–
COC(=O)c1ccc(-c2ccc(/C=C3/C(=O)Nc4ccccc43)o2)c(N)c1 [Compound 143]	–	–	–	–	–	30.6%	–
CCN(CC)CCNC(=O)c1ccc(-c2ccc(/C=C3/C(=O)Nc4ccc(F)cc43)o2)cc1 [Compound 80]	–	–	–	–	–	94.2%	IC50 (recombinant PIM-1; [8]): < 1 µM
COc1cc(CNC(=O)c2cccc(-c3ccc(/C=C4/C(=O)Nc5ccc(Cl)cc54)o3)c2)ccn1 [Compound 142]	–	–	–	–	–	32.7%	–
NCc1cccc(-c2ccc(/C=C3/C(=O)Nc4ccccc43)o2)c1 [Compound 165]	–	–	–	–	–	19.4%	–
O=C1Nc2ccc(C(F)(F)F)cc2/C1=C\c1ccc(-c2cccc(C(=O)NCCN3CCCC3)c2)o1 [Compound 47]	–	–	–	–	–	22.9%	–
